Results taken from patent US5674905A, “Bicyclooctane and bicycloheptane derivatives” (James Black Foundation Limited, priority 1992, dated 1997).

How the values were obtained:
CCKB receptor = molecular target: T1, CCKB receptor (Mus musculus, UniProt P56481); assay: radioligand binding assay at the CCKB receptor in mouse cortical membranes ([125I]-CCK8S); conditions: 150 min at 21±3°; for Ki: read-out: CCKB pKi (converted)
T1 construct: The cortex was dissected, weighed and homogenised in 40 ml ice-cold buffer; from tissue; host or cells: cerebral cortex membranes of male CD1 mice (Charles River)
T1 sequence (P56481 1-453): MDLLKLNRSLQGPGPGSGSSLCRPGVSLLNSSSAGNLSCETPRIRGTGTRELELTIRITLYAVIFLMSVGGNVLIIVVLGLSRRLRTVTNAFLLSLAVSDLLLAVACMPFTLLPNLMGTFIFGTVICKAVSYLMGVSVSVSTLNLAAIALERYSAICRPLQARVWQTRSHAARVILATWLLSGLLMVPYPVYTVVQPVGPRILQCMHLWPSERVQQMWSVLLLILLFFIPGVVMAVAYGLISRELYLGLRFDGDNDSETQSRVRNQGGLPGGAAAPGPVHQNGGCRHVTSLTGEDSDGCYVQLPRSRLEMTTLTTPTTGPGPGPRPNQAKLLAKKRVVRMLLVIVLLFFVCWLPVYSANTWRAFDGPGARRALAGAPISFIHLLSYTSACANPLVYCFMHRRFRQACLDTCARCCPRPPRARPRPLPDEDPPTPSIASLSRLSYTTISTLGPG
Procedure: The compounds of the examples were tested for binding at the CCKB receptor in mouse cortical membranes by means of a radioligand binding assay. The procedure was as follows:
The whole brains from male mice (CD1 22-25 g; Charles River) were removed and placed in ice-cold buffer (pH7.2 @ 21±3 °) of the following composition (mM); 10 HEPES, 130 NaCl, 4.7 KCl, 5 MgCl2, 1 EDTA and containing 0.25 g.1^-1 bacitracin. The cortex was dissected, weighed and homogenised in 40 ml ice-cold buffer using a Teflon-in-glass homogeniser. The homogenate was centrifuged at 39,800 g for 20 min at @ 4°, the supernatant discarded and the pellet resuspended by homogenisation in fresh buffer. The homogenate was recentrifuged (39,800 g; 20 min @4°) and the final pellet was resuspended in HEPES buffer to give a tissue concentration of 2 mg.ml^-1 (original wet weight).
The membranes ([…]) were incubated for 150 min at 21±3° in a final volume of 0.5 ml with HEPES buffer containing [^125 I]-CCK8S (0.05 ml; 200 pM NEN 2200 Ci.mmol^-1) and competing compound. Total and non-specific binding of [^125 I]-CCK8S were defined using 0.05 ml of buffer and 0.05 ml of […] L-365,260, respectively. The assay was terminated by rapid filtration through pre-soaked Whatman GF/B filters using a Brandell Cell harvester. The filters were washed (3×3 ml) with ice-cold 50 mM Tris-HC1 (pH7.4 @ 4° C.) and bound radioactivity determined by counting (1 min.) in a gamma-counter.

gastrin receptors = molecular target: T2, gastrin receptors (Rattus norvegicus, UniProt P30553); assay: gastrin antagonist activity in an immature rat stomach assay (pentagastrin-stimulated acid secretion); conditions: isolated immature rat stomach, cumulative pentagastrin dose-response curves; for Gastrin pKB: 60 min; for Kb: read-out: Gastrin pKB (converted)
T2 construct: from tissue; host or cells: isolated perfused whole stomach of immature rats (33-50 g, ca. 21 days old)
T2 sequence (P30553 1-452): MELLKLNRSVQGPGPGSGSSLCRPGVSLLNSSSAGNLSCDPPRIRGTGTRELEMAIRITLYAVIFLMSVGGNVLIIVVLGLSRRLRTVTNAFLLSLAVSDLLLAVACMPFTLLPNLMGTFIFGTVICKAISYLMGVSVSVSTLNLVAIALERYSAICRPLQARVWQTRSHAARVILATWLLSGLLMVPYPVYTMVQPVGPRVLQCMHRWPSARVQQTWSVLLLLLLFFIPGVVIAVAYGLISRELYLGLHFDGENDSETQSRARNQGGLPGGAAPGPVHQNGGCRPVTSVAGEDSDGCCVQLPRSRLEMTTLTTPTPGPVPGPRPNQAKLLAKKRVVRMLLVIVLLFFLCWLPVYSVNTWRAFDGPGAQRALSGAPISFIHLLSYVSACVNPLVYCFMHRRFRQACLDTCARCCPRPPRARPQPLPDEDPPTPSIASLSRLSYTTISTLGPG
Procedure: The compounds of the examples were also tested for gastrin antagonist activity in an immature rat stomach assay. The procedure was as follows:
The oesophagus of immature rats (33-50 g, ca. 21 days old) was ligated at the level of the cardiac sphincter and the duodenal sphincter was cannulated. The stomach was excised and flushed with ca. 1 ml of unbuffered physiological saline solution. The fundus was punctured and cannulated. A further 4-5 ml of unbuffered solution was flushed through the stomach to ensure the preparation was not leaking. The stomach was lowered into a jacketed organ bath containing 40 ml of buffered solution containing 3×10^-8 M 5-methyl-furmethide, maintained at 37° and gassed vigorously with 95% O2 /5% CO2. The stomach was continuously perfused at a rate of 1 ml min^-1 with unbuffered solution gassed with 100% O2 with the perfusate passing over an internally referenced pH-electrode fixed 12 cm above the stomach.
After 120 min of stabilisation the drugs were added directly to the serosal solution in the organ bath and after a further 60 min cumulative pentagastrin dose-response curves were started. Changes in acid secretion were monitored and the curves analysed according to Black et. al., Br. J. Pharmacol., 1985, 86, 581.

SMILES | CCKB pKi (CCKB receptor) | Gastrin pKB (gastrin receptors) | Ki (CCKB receptor) [nM] | Kb (gastrin receptors) [nM]
COC(=O)C12CC(c3ccccc31)C(C(=O)NCC13CC4CC(CC(C4)C1)C3)C2C(=O)O (mixture of isomers) [Example 54, 1-methoxycarbonyl-endo-cis-(±)-7-(1-adamantylmethylaminocarbonyl)-2,3-benzobicyclo-[2.2.1] hept-6-carboxylic acid] | 5.3 | 6.1 |  | 
O=C(O)[C@@H]1[C@H](C(=O)NCC23CC4CC(CC(C4)C2)C3)[C@H]2C=C[C@@H]1c1ccccc12 (relative stereo) [Example 2, endo-(±)-cis-8-(1-adamantylmethylaminocarbonyl)-5,6-benzobicyclo[2.2.2]oct-2-ene-7-carboxylic acid] |  |  | 2510 | 1260
O=C(NCC12CC3CC(CC(C3)C1)C2)C1C2C=CC(c3ccccc32)C1C(=O)N1CCC[C@H]1C(=O)O (stereo partly drawn) [Example 27, exo-cis-7-(2-S-carboxy-pyrrolidinocarbonyl)-8-(1-adamantylmethylaminocarbonyl)-5,6-benzo-bicyclo[2.2.2]oct-2-ene] | 6.2 | 6.5 |  | 
O=C(O)C1C2C=CC(C2=C(c2ccccc2)c2ccccc2)C1C(=O)NCC12CC3CC(CC(C3)C1)C2 (racemic) [Example 39, (±)-endo and exo-cis-7-(1-adamantylmethylaminocarbonyl)-2-diphenylmethylene bicyclo-[2.2.1]hept-4-ene-6-carboxylic acid] |  |  | 2000 | 2510
CC1=C(C)[C@H]2c3ccccc3[C@@H]1[C@H](C(=O)O)[C@@H]2C(=O)NCC12CC3CC(CC(C3)C1)C2 (relative stereo) [Example 12, endo-(±)-cis-8-(1-adamantylmethylaminocarbonyl)-2,3-dimethyl-5,6-benzobicyclo[2.2.2]oct-2-ene-7-carboxylic acid] |  |  | 794 | 5010
COC(=O)[C@H](C)NC(=O)C1C2CCC(CC2)C1C(=O)NCC12CC3CC(CC(C3)C1)C2 (mixture of isomers) [Example 25, cis-(±)-2-(1-S-Methoxycarbonyl-ethylaminocarbonyl)-3-(1-adamantylmethylaminocarbonyl)-bicyclo[2.2.2]octane] |  |  | 7940 | 1000
COC(=O)C12CC(c3ccccc31)C(C(=O)NCC13CC4CC(CC(C4)C1)C3)C2C(=O)N[C@@H](Cc1ccccc1)C(=O)Nc1cc(C(=O)O)cc(C(=O)O)c1 (mixture of isomers) [Example 55, (±)-1-methoxycarbonyl-endo-cis-6-(1S-(3,5-dicarboxyphenylaminocarbonyl)-2-phenylethylamino-carbonyl)-7-(1-adamantylmethylaminocarbonyl)-2,3-benzo-bicyclo[2.2.1]heptane] | 7.6 | 6.9 |  | 
O=C(NCC12CC3CC(CC(C3)C1)C2)C1C2C=CC(c3ccccc32)C1C(=O)N[C@H](Cc1c[nH]c2ccccc12)C(=O)O (single isomer, unassigned) [Example 16, endo-cis-7-(2-R-(3-indolyl)-1-carboxy-ethylaminocarbonyl)-8-(1-adamantylmethylaminocarbonyl)-5 , 6-benzobicyclo[2.2.2]oct-2-ene] |  |  | 316 | 501
O=C(NCC12CC3CC(CC(C3)C1)C2)C1C2C=CC(c3ccccc32)C1C(=O)N1CCC[C@@H]1C(=O)O (stereo partly drawn) [Example 9, exo-cis-7-(2-R-carboxy-pyrrolidinocarbonyl)-8-(1-adamantylmethylaminocarbonyl)-5,6-benzobicyclo-[2.2.2]oct-2-ene] |  |  | 2510 | 794
O=C(O)c1cc(NC(=O)[C@H](Cc2ccccc2)NC(=O)C2C3C=CC(c4ccccc43)C2C(=O)NCC23CC4CC(CC(C4)C2)C3)cc(C(=O)O)c1 (stereo partly drawn) [Example 60, exo-cis-7-(1S-(3,5-dicarboxyphenylaminocarbonyl)-2-phenyl-ethylaminocarbonyl)-8-(1-adamantylmethylaminocarbonyl)-5,6-benzobicyclo[2.2.2]oct-2-ene] |  |  | 316 | 50.1
O=C1CC2c3ccccc3C1C(C(=O)O)C2C(=O)NCC12CC3CC(CC(C3)C1)C2 (mixture of isomers) [Example 13, endo-(±)-cis-8-(1-adamantylmethylaminocarbonyl)-2-oxo-5,6-benzobicyclo[2.2.2]octane-7-carboxylic acid] |  |  | 2510 | 3160
CC1=C(C)[C@H]2c3ccccc3[C@@H]1[C@@H](C(=O)O)[C@H]2C(=O)NCC12CC3CC(CC(C3)C1)C2 (relative stereo) [Example 11, exo-(±)-cis-8-(1-adamantylmethylaminocarbonyl)-2,3-dimethyl-5,6-benzobicyclo[2.2.2]oct-2-ene-7-carboxylic acid] |  |  | 1580 | 6310
O=C(NCC12CC3CC(CC(C3)C1)C2)C1C2C=CC(c3ccccc32)C1C(=O)N1C[C@H](O)C[C@@H]1C(=O)O (stereo partly drawn) [Example 29, exo-cis-7-(2-R-carboxy-4-R-hydroxy-pyrrolidinocarbonyl)-8-(1-adamantylmethylaminocarbonyl)-5,6-benzo-bicyclo[2.2.2]oct-2-ene] |  |  | 2510 | 2000
COC(=O)[C@H](C)NC(=O)C1C2C(C)=C(C)C(c3ccccc32)C1C(=O)NCC12CC3CC(CC(C3)C1)C2 (stereo partly drawn) [Example 19, exo-cis-7-(1-S-Methoxycarbonyl-ethylaminocarbonyl)-8-(1-adamantylmethylaminocarbonyl)-2,3-dimethyl-5,6-benzobicyclo[2.2.2]oct-2-ene] |  |  | 398 | 1580
COC(=O)[C@H](C)NC(=O)C1C2CCC(c3ccccc32)C1C(=O)NCC12CC3CC(CC(C3)C1)C2 (stereo partly drawn) [Example 22, endo-cis-7-(1-S-Methoxycarbonyl-ethylaminocarbonyl)-8-(1-adamantylmethylaminocarbonyl)-2,3-benzobicyclo[2.2.2]octane] |  |  | 631 | 200
